Experimental data reported in ChEMBL document CHEMBL1144569 (Bioorg Med Chem, 2007).
Activity calls are given as the source filed them. The calls are words filed in the database; no cut-off is given here.

What was measured:
[1] = target: T1, Cannabinoid receptor 2 (Homo sapiens, UniProt P34972); experiment: Agonist activity at CB2 receptor expressed in HL60 cells assessed as increase in intracellular free calcium concentrations; type: functional, cell-based, HL-60
[2] = target: T1, Cannabinoid receptor 2; experiment: Antagonist activity at CB2 receptor expressed in HL60 cells assessed as abrogation of 2-archidonoylglycerol-induced increase in intracellular free calcium levels; type: functional, cell-based; settings: HL-60
[3] = target: Cannabinoid receptor 1 (Homo sapiens) (UniProt P21554); experiment: Antagonist activity at CB1 receptor expressed in NG108-15 cells assessed as abrogation of 2-archidonoylglycerol-induced increase in intracellular free calcium levels; type: functional, cell-based
Chain of Cannabinoid receptor 1 (Homo sapiens) (P21554 whole entry): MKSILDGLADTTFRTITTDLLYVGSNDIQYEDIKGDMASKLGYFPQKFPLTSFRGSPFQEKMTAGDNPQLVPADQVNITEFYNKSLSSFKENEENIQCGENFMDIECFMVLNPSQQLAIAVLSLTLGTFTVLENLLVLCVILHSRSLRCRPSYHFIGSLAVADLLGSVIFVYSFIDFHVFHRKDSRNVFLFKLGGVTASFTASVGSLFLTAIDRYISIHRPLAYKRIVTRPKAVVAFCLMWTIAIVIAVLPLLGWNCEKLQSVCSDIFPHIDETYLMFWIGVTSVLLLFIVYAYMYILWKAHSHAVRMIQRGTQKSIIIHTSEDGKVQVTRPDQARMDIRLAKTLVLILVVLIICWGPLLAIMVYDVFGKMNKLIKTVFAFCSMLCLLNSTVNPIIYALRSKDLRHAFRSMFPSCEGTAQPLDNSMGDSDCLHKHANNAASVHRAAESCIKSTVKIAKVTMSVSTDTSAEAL

T1 sequence (P34972 whole entry): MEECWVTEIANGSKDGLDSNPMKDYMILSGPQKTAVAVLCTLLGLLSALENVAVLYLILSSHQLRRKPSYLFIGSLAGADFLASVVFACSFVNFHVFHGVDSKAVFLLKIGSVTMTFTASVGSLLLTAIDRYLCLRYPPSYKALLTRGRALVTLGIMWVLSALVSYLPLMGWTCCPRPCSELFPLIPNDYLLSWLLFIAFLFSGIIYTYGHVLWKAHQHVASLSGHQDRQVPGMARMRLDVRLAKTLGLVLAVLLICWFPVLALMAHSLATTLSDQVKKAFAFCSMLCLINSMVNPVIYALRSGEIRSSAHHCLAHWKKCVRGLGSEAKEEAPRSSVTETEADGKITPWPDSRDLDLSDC

SMILES: CCCCC/C=C\C/C=C\C/C=C\C/C=C\CCCC(=O)OC(CO)CO [2-ARACHIDONOYLGLYCEROL]
- EC50 [1]: 0.017 µM
- Activity [2]: Active
- Activity [3]: Active
